Target: T1, Human BTK enzyme (Homo sapiens, UniProt Q06187)
T1 construct: Reaction Biology Corporation
Test: BTK inhibitory activity assay at Reaction Biology Corporation, peptide substrate
Format: biochemical
Settings: peptide substrate 20 μM, ATP 10 μM; for inhibition at 0.005 µM: read-out: Inhibition of ALK, IC50 (Inhibitory Activities of examples at 5 nM)

T1 sequence (Q06187 whole entry): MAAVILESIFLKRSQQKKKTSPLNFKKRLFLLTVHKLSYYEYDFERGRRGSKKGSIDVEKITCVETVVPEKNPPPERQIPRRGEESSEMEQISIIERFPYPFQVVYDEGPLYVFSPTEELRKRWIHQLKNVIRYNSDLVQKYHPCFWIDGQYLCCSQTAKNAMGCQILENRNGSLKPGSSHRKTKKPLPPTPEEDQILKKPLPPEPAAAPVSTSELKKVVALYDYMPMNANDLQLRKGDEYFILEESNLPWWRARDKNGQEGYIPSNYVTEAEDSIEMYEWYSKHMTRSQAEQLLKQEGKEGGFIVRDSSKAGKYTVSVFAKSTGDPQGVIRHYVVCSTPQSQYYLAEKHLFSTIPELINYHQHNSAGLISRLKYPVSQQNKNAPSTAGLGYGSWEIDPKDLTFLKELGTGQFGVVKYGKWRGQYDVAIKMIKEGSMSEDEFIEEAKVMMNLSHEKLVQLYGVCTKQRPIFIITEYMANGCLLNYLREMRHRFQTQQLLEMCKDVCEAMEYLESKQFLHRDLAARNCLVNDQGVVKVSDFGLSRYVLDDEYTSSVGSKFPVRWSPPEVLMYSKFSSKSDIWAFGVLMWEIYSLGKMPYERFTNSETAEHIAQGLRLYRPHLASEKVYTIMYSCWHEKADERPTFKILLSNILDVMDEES

C=CC(=O)N1CC2(CC(n3nc(-c4ccc(Oc5ccccc5)cc4)c4c(N)ncnc43)C2)C1 [Example 1, 1-(6-(4-Amino-3-(4-phenoxyphenyl)-1H-pyrazolo[3,4-d]pyrimidin-1-yl)-2-azaspiro[3.3]heptan-2-yl)prop-2-en-1-one]
inhibition at 0.005 µM (compound at 5 nM): 98.5% | IC50: 1.48 nM

C=CC(=O)N1CCC2(CC1)CC(n1nc(-c3ccc(Oc4ccccc4)cc3)c3c(N)ncnc31)C2 [Example 2, 1-(2-(4-amino-3-(4-phenoxyphenyl)-1H-pyrazolo[3,4-d]pyrimidin-1-yl)-7-azaspiro[3.5]nonan-7-yl)prop-2-en-1-one]
inhibition at 0.005 µM (compound at 5 nM): 80.1%

C=CC(=O)N1CC2(CCC(n3nc(-c4ccc(Oc5ccccc5)cc4)c4c(N)ncnc43)CC2)C1 [Example 3, 1-(7-(4-amino-3-(4-phenoxyphenyl)-1H-pyrazolo[3,4-d]pyrimidin-1-yl)-2-azaspiro[3.5]nonan-2-yl)prop-2-en-1-one]
inhibition at 0.005 µM (compound at 5 nM): 96.4%

C=CC(=O)N1CCCC2(CC(n3nc(-c4ccc(Oc5ccccc5)cc4)c4c(N)ncnc43)C2)C1 (stereo not drawn) [Example 4A, 1-(2-(4-amino-3-(4-phenoxyphenyl)-1H-pyrazolo[3,4-d]pyrimidin-1-yl)-6-azaspiro[3.5]nonan-6-yl)prop-2-en-1-one]
inhibition at 0.005 µM (compound at 5 nM): 85.7%

C=CC(=O)N1CCCC2(CC(n3nc(-c4ccc(Oc5ccccc5)cc4)c4c(N)ncnc43)C2)C1 (stereo not drawn) [Example 4B, 1-(2-(4-amino-3-(4-phenoxyphenyl)-1H-pyrazolo[3,4-d]pyrimidin-1-yl)-6-azaspiro[3.5]nonan-6-yl)prop-2-en-1-one]
percent inhibition of BTK at 5 nM (compound at 5 nM): 97.9%

— US9458162B2, “Cyclic molecules as bruton's tyrosine kinase inhibitors” (Nanjing Allgen Pharma Co. Ltd., priority 2012, dated 2016)
